Reference: patent US7601494B2, “Method of screening candidate compounds for susceptibility to biliary excretion” (The University of North Carolina at Chapel Hill, priority 1999, dated 2009)

Assays:
Mrp3 [1] = experiment: Immunoblot analysis of Mrp3 expression in siRNA-treated SCRH; format: cell-based, rat; conditions: vs siFL-transfected and non-transfected cells
Experimental: (§1) HepG2 cells were maintained in Dulbecco's modified Eagle's medium/F-12 plus 10% FBS. Rat hepatocytes were isolated from male Wistar rats (220-300g) by in situ collagenase perfusion (Annaert et al., Drug Metab Dispos 29:1277-1283, 2001). Cells were seeded at a density of 1.5×10^6 cells per well onto polystyrene 6-well plates pre-coated with rat tail type I collagen; a top layer of gelled collagen was overlaid 24 hr after plating. Rat hepatocyte cultures were maintained in Dulbecco's modified Eagle's medium supplemented with 0.1 μM dexamethasone and 0.1% ITS culture supplement (6.25 mg/mL insulin, 6.25 mg/mL transferrin, 6.25 μg/mL selenous acid, 5.35 mg/mL linoleic acid, and […]). Medium was changed every 24 hr.
(§2) HepG2 cells were seeded at a density of 2×10^5 cells per well onto 12-well plates 24 hr before transfection. A mixture of 100 ng firefly luciferase expression plasmid (PGL3-FL) and 100 ng Renilla luciferase expression plasmid (PRL-TK) and various amounts of firefly luciferase siRNA were used per well. Transfections of SCRH were performed at 20 hr after plating, unless specifically indicated. siRNA (2 μg unless specified) was used per well in 6-well plates. siRNA and DNA were formulated for transfection using […]™ transfection reaction kit (QIAGEN Inc. Valencia, Calif. USA). Briefly, siRNA was condensed in Enhancer EC at a ratio of 1:2 (μg of total RNA and/or DNA : μl of Enhancer), and formulated with TransMessenger at a ratio of 1:4 (μg of RNA and /or DNA: μl of TransMessenger) and then incubated with cells. For transfections of HepG2 cells, medium was changed after an overnight incubation with siRNA. For transfections of SCRH, cells were incubated with siRNA for 4 hr and then were overlaid with collagen. siRNA delivery into hepatocytes was more efficient before overlay of the top collagen layer. The effect of transfection was examined 48 hr later.
(§3) Cells were harvested 48 hr post transfection and lysed in 1% SDS, 1 mM EDTA plus COMPLETE™ protease inhibitor cocktail (Roche Diagnostics, Mannheim, Germany). The protein concentration of the clear cell lysate was determined with the BCA Protein Assay Reagent Kit (Pierce Biotech, Inc. Rockford, Ill.). […] of total protein per lane was resolved by electrophoresis on NuPAGE 4-12% Bis-Tris Gel (Invitrogen Life Technology, Carlsbad, Calif. USA) and were transferred onto polyvinylidone difluoride membranes. The following antibodies were used to probe the membranes: anti-Mrp2 (M2111-6, Alexis Biochemicals, San Diego, Calif. USA); anti-Mrp3 (kind gift from Dr. Yuichi Sugiyama); anti-Radixin (Chemicon International, Inc. Temecula, Calif. USA), anti-β-actin (MAB1501, Chemicon).

Mrp3 [2] = target: T1, Mrp3 (Rattus norvegicus, UniProt O88563); experiment: Assessment of Mrp3 function with CDF disposition in siMrp3-treated SCRH (30 min washout); format: cell-based
T1 construct: endogenous in cells; host or cells: sandwich-cultured primary hepatocytes of male Wistar rats
T1 sequence (O88563 whole entry): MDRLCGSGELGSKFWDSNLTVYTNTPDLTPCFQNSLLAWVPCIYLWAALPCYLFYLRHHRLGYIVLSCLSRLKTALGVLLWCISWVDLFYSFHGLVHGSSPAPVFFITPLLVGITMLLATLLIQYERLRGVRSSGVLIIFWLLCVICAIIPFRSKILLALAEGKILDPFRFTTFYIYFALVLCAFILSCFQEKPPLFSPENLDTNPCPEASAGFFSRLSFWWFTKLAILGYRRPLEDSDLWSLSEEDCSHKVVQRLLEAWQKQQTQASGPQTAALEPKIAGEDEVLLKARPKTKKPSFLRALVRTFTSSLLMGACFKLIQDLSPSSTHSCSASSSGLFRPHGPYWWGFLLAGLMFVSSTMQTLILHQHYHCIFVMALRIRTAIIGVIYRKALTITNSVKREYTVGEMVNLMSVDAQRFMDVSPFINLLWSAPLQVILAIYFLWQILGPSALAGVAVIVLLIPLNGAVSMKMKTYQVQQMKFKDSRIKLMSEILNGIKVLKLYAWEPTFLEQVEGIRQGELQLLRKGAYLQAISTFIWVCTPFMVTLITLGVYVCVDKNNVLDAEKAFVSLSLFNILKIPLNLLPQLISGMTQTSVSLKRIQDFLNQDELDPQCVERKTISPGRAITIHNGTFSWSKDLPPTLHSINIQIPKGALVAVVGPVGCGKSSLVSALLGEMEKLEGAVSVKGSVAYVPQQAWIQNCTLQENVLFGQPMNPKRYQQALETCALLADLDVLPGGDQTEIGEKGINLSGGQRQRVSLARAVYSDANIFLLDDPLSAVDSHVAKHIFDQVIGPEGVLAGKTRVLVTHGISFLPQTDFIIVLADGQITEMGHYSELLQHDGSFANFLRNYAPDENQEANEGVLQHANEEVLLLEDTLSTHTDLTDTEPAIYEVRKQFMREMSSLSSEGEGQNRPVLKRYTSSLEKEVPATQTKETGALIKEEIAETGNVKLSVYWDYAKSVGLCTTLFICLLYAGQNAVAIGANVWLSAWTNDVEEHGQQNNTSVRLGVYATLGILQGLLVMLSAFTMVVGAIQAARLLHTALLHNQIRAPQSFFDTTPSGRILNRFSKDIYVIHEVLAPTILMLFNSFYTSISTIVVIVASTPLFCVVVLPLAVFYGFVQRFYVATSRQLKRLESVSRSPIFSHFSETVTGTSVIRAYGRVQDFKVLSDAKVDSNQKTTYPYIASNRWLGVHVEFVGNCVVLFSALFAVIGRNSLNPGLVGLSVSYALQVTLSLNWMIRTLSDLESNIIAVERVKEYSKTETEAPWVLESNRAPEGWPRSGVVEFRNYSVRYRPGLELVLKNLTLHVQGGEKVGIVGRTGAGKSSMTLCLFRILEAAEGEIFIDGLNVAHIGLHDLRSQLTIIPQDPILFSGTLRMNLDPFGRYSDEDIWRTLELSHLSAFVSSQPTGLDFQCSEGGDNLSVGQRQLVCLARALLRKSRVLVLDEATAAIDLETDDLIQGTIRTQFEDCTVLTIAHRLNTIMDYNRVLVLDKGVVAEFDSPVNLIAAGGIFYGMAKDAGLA
Experimental: Cells were rinsed twice with Hanks' balanced salt solution (HBSS, 2 mL, 37° C.) and incubated (10 min, 1.5 mL, 37° C.) with 2 μM CDF diacetate (Molecular Probes, Eugene, Oreg. USA), and were then rinsed twice with cold HBSS (2 mL, 4° C.). Cell images were taken with a Axiovert 100TV inverted microscope. Accumulation of CDF in cells+bile canaliculi and cells only was assessed in SCRH pre-incubated (10 min, 2 mL, 37° C.) with standard HBSS and Ca^2+-free HBSS, respectively (Liu et al., J. Pharmacol. Exp. Ther. 289:1592-1599, 1999). SCRH were subsequently incubated with CDF diacetate (10 min, 2 mL, 37° C.). In siMrp2-treated SCRH, cells were then rinsed four times with cold HBSS (2 mL, 4° C.) and lysed (1 mL, 0.5% TritonX-100 in phosphate-buffered saline). In siMrp3-treated SCRH, following incubation with CDF diacetate, cells were rinsed four times with warm HBSS (2 mL, 37° C.) and were incubated with HBSS (30 min, HBSS changed every 10 min, 2 mL, 37° C.) to allow time for intracellular CDF to undergo appreciable basolateral excretion prior to rinsing the SCRH four times with cold HBSS and lysing the cells (as above). CDF fluorescence in lysate was quantified with fluorescence spectrophotometry (λex=485 nm, λem=[…]); protein concentration was determined with the BCA method kit (as above).

SCRH = experiment: Lactate dehydrogenase activity assay of culture medium of SCRH; format: cell-based, rat; conditions: after three days in culture, mean±SEM
Experimental: Prior to the functional studies, cell culture medium was assayed for lactate dehydrogenase activity, an intracellular enzyme whose leakage into extracellular medium is inversely related to cell viability. Lactate dehydrogenase activity was assayed with kit 500-C (Sigma Diagnostics, St. Louis, Mo. USA) utilizing lactate dehydrogenase-catalyzed reduction of pyruvate to lactate, subsequent conjugation of remaining pyruvate with 2,4-dinitrophenylhydrazine, and spectrophotometric detection (λ=500 nm) of the pyruvate-2,4-dinitrophenylhydrazone conjugate at alkaline pH (Cabaud and Wroblewski, Am. J. Clin. Pathol. 30:234-236,1958).

Mrp2 = experiment: Immunoblot analysis of Mrp2 expression in siRNA-treated SCRH; format: cell-based, rat; conditions: vs siFL-transfected and non-transfected cells
Experimental: as §1, §2, §3

For “siMrp3: siRNA targeting rat Mrp3, GGUCCAAGGACCUGCCUCCCA (SEQ ID NO: 6), nucleotides 1950-1970 of Mrp3 cDNA (listed as RNA, chemistry not given here)”, the “Mrp3 protein expression (in words)” value (Mrp3 [1]) was “a decrease in Mrp3 protein expression”, the “increase of biliary excretion index of CDF” value (Mrp3 [2]; transfected SCRH, after 30 min washout, vs control) was roughly 60% and the “biliary excretion index of CDF” value (Mrp3 [2]; transfected SCRH, after 30 min washout, control 36.2%) was 57.5%. The “CDF accumulation in cells only” value (Mrp3 [2]; transfected SCRH, after 30 min washout, non-transfected control 15.6±4.0) was 13.7±2.2 pmol/mg protein/10 min, the “CDF accumulation in cells+bile canaliculi” value (Mrp3 [2]; transfected SCRH, after 30 min washout, non-transfected control 24.4±4.3) was 32.3±2.5 pmol/mg protein/10 min and the “CDF fluorescence in canalicular networks (in words)” value (Mrp3 [2]; vs siFL-transfected or non-transfected cells) was “more intense”. The lactate dehydrogenase activity (SCRH) was 87±3 % non-transfected control SCRH and the “expression of Mrp2 (in words)” value (Mrp2) was “no change in expression of Mrp2”.
